The subject of assay [1] is methicillin-resistant S. aureus (MRSA) strain MW2. On the set-up: method as in PMID 29590091. Particulars: ref [12]; cited from earlier work.
In assay [2] the test system is E. faecalis ATCC 51299 (reference strain, vanB positive). Put plainly: MIC/MBC by broth micro-dilution (CLSI). It is filed as cell-based. Particulars: Enterococcus faecalis; for MBC: ATCC51299, in square brackets, modal value; for MIC: ATCC51299, modal value. As for the experimental part: (§1) To expand the previously obtained results compounds 16 and 17 were also tested on wider a selection of strains: two other MDR S. aureus and E. faecalis clinical isolates, the S. aureus ATCC 25923 and the E. faecalis ATCC 51299 reference strains. Compound 2, which was endowed with low antimicrobial activity, was tested as well, to confirm its low efficacy. Adarotene was used as control compound (Table 2).
(§2) MICs and MBCs were determined according to CLSI (Clinical and Laboratory Standards Institute) guidelines, in triplicate. Results are shown as modal values of the three replicates. According to MIC and MBC data, the killing rate was calculated as the ratio between MBC and MIC on which basis it is possible to define the compounds tested as bactericides (killing rate = 1–4), or bacteriostatic (killing rate > 4).
(§3) Preparation of the solution containing molecules: for each molecule to be tested, solutions were made as DMSO stock, with a concentration of 2.560 mg/mL. Scalar dilutions were than prepared directly on plates by using Mueller Hinton Broth (MHB) as a growth medium (range 0.5–256 µg/mL).
(§4) Bacterial suspension preparation: cryostrains preserved at −80 °C were recovered by incubation in growth medium (Brain Heart Infusion Broth, BHI) for 24–48 h at 35 ± 2 °C followed by passages in agar growth medium (Columbia Blood Agar). Colonies with less than 30 h were suspended in MHB with the purpose to prepare a bacterial suspension with a turbidity of 0.5 MF, containing approximately 1.5 × 10^8 cfu/mL. This suspension was than diluted in MHB until reaching a final concentration of 5 × 10^4 CFU/well. Simultaneously, check in broth-microdilution only with solvent (in order to exclude that the effect of growth inhibition might be due to the drug solution solvent), positive growth control in absence of DMSO and drug, and negative purity control only with injection broth were performed.
E. faecalis ATCC 51299 (reference strain): vanB positive.
For orientation: Dilution methods test growth across graded concentrations, often in twofold steps.

For assay [3], the system named is E. faecalis strain 1 (MDR clinical isolate). Put plainly: MIC/MBC by broth micro-dilution (CLSI). Format: cell-based, Enterococcus faecalis. Conditions: for MBC: in square brackets. The procedure:
(§5) The compounds were initially tested with a methicillin-resistant S. aureus and an E. faecalis clinical isolates (details in the experimental section), two MDR strains according to definition by Magiorakos et al.. The activity of studied compounds was assessed by broth micro-dilution method. Minimal Inhibitory Concentration (MIC), and Minimal Bactericidal Concentration (MBC) were determined and possible bacteriostatic or bactericidal activity was also investigated.
as §2, §3, §4
E. faecalis strain 1 (collection, MDR) vanA/B negative; aminoglycosides high-level resistant to aminoglycosides (gentamicin and streptomycin) and ampicillin.

For assay [4], the system named is S. aureus strain 1 (MDR clinical isolate, MRSA, mecA positive). Briefly: MIC/MBC by broth micro-dilution (CLSI). Format: cell-based, Staphylococcus aureus. Particulars: for MIC / MBC: S. aureus Strain 1; for bactericidal or bacteriostatic activity (killing rate = MBC/MIC): S. aureus and E. faecalis, bactericides killing rate = 1–4, bacteriostatic > 4; for MBC: in square brackets. The procedure: as §5, §2, §3, §4
S. aureus strain 1 (collection, MDR): mecA positive; MRSA, β-lactamase positive, resistant to ciprofloxacin, gentamicin and erythromycin.

The test system of assay [5] is E. faecalis strain 2 (MDR clinical isolate). Briefly: MIC/MBC by broth micro-dilution (CLSI). Format: cell-based. Particulars: Enterococcus faecalis, modal value; for MBC: in square brackets. As for the experimental part:
as §1, §2, §3, §4
E. faecalis strain 2 (collection, MDR) vanA/B negative; aminoglycosides high-level resistant to aminoglycosides (gentamicin and strseptomycin) and ampicillin.

Assay [6] concerns S. aureus ATCC 25923 (reference strain). Briefly: MIC/MBC by broth micro-dilution (CLSI). Format: cell-based. Particulars: Staphylococcus aureus; for MBC: ATCC25923, in square brackets, modal value; for MIC: ATCC25923, modal value. As for the experimental part:
as §1, §2, §3, §4
S. aureus ATCC 25923 (reference strain): mecA negative; multi-susceptible.

Assay [7] has as its system S. aureus strain 2 (MDR clinical isolate). Put plainly: MIC/MBC by broth micro-dilution (CLSI). It is filed as cell-based. Conditions: Staphylococcus aureus, modal value; for MBC: in square brackets. The procedure:
as §1, §2, §3, §4
S. aureus strain 2 (collection, MDR): mecA negative; β-lactamase positive, resistant to erythromycin, gentamicin, clindamycin and fusidic acid.

Assay [8] has as its system tumor cell line H-460 NCI. On the set-up: method as in PMID 32920362. Conditions: ± SD, ref [17], read-out: IC50 (concentration required for 50% inhibition of cell growth); cited from earlier work.
For assay [9], the system named is tumor cell line H-460 NCI. Put plainly: Cytotoxic activity, inhibition of cell growth. Particulars: Homo sapiens, NCI-H460; H-460 cell line, unpublished results; ± SD; read-out: IC50 (concentration required for 50% inhibition of cell growth). Format: cell-based. The source says: Table 1 Antimicrobial activity of adarotene derivatives 1–20 against MDR clinical strains of S. aureus and E. faecalis and cytotoxic activity. | column: IC50 ^a (µM)

[10] abbreviates: Enterococcus faecalis, modal value.
Setting [11] is: Enterococcus faecalis, modal value, read-out: MIC.
[12] abbreviates: modal value of three replicates.
Where [13] appears, read: Staphylococcus aureus, MRSA, modal value of three replicates, read-out: MIC.
[14] abbreviates: Staphylococcus aureus, MRSA, modal value, read-out: MIC.
The mark [15] stands for this setting: Staphylococcus aureus, MRSA, modal value.
The mark [16] stands for this setting: Enterococcus faecalis, modal value of three replicates, read-out: MIC.

Consider seven compounds from publication PMC7912516, “New Antimicrobials Based on the Adarotene Scaffold with Activity against Multi-Drug Resistant Staphylococcus aureus and Vancomycin-Resistant Enterococcus” (Antibiotics, 2021).

Where “and” joins values, the source holds several entries; their conditions need not be identical. Equal entries are not always repeated. Where two headings read alike, the source gives them in different places.

Broadly, the MBC is the smallest concentration meeting the test's criterion for killing. A lower MBC goes with more potent killing.

As to `O=C(O)c1ccc2cc(-c3ccc(O)c(C45CC6CC(CC(C6)C4)C5)c3)ccc2c1` [CD437], the “activity against MRSA strain MW2” value in assay [1] is “exhibit activity”.
`CON=Cc1cc(/C=C/C(=O)O)ccc1-c1ccc(O)c(C23CC4CC(CC(C4)C2)C3)c1` [Compound 17]: the MBC in assay [2] was 32 µg/mL and 74 µM; in assay [3] (setting [10]), 16 µg/mL and 38 µM; in assay [4] (setting [15]), 4 µg/mL and 9 µM; in [5], 16 µg/mL and 36 µM; in assay [6], 4 µg/mL and 10 µM; in assay [7], 32 µg/mL and 74 µM. The MIC in assay [2] was 8 µg/mL and 18 µM; in [3] (setting [11]), 19 µM; in assay [3] (setting [12]) it was 2 to 8 µg/mL and 8 µg/mL; in assay [4] (setting [12]) it was 4 [4] µg/mL; in [4] (setting [13]) it was 4 µg/mL; in [4] (setting [14]), 9 µM. Moreover, the MIC in [5] was 8 µg/mL and 18 µM; in assay [6], 2 µg/mL and 5 µM; in [7] it was 4 µg/mL and 10 µM. Further, the “bactericidal or bacteriostatic activity (killing rate = MBC/MIC)” value in [4] is “bactericidal effect”. In addition, the IC50 in assay [8] is > 10 µM.
Turning to `N#C/C(=C\c1ccc(-c2ccc(O)c(C34CC5CC(CC(C5)C3)C4)c2)cc1)C(=O)O` [Compound 9], the MBC in [3] (setting [10]) is 4 µg/mL and 10 µM; in assay [4] (setting [15]) it was 4 µg/mL and 10 µM. For the same compound, the MIC in [3] (setting [16]) was 1 to 4 µg/mL; in [3] (setting [11]), 2 µM; in assay [3] (setting [12]) it was 1 µg/mL; in [4] (setting [12]) it was 2 µg/mL; in [4] (setting [13]), 2 to 4 µg/mL; in [4] (setting [14]), 5 µM. Further, in assay [9], the IC50 was > 10 µM.
As for `CCCCC/C=C\C/C=C\CCCCCCCC(=O)Oc1ccc(-c2ccc(/C=C/C(=O)O)cc2)cc1C12CC3CC(CC(C3)C1)C2` [Compound 3], the MIC in [3] (setting [16]) stood at 128 µg/mL; in assay [3] (setting [11]), 201 µM; in assay [4] (setting [13]) it was 32 µg/mL; in [4] (setting [14]), 50 µM. Further, in assay [9], the IC50 was 7.8 ± 0.7 µM.
With `O=C(O)c1ccc(-c2ccc3cc(O)c(C45CC6CC(CC(C6)C4)C5)cc3c2)cc1` [CD1530], the “activity against MRSA strain MW2” value in [1] was “exhibit activity”.
Take `O=C(O)/C=C/c1ccc(-c2cc(CNC(=O)Nc3ccccc3)c(O)c(C34CC5CC(CC(C5)C3)C4)c2)cc1` [Compound 14]: the MBC in assay [3] (setting [10]) was 16 µg/mL and 31 µM; in [4] (setting [15]), 8 µg/mL and 15 µM. Moreover, the MIC is 4 µg/mL in [3] (setting [16]), 8 µM in assay [3] (setting [11]), 8 µg/mL in [4] (setting [13]) and 15 µM in assay [4] (setting [14]). Also, in assay [9], the IC50 is > 10 µM.
On to `CC(C)(C)ON=Cc1cc(/C=C/C(=O)O)ccc1-c1ccc(O)c(C23CC4CC(CC(C4)C2)C3)c1` [Compound 16], for which the minimum bactericidal concentration (MBC) is 8 µg/mL and 16 µM in assay [2]; 4 µg/mL and 8 µM in assay [3] (setting [10]); 4 µg/mL and 8 µM in [4] (setting [15]); 8 µg/mL and 16 µM in [5]; 4 µg/mL and 8 µM in [6]; 2 µg/mL and 4 µM in assay [7]. Further, the MIC in assay [2] was 2 µg/mL and 4 µM; in assay [3] (setting [16]) it was 2 to 8 µg/mL; in assay [3] (setting [11]), 4 µM; in [3] (setting [12]) it was 2 µg/mL; in assay [4] (setting [12]), 4 [4] µg/mL; in assay [4] (setting [13]) it was 4 µg/mL. The MIC in assay [4] (setting [14]) was 8 µM; in assay [5], 2 µg/mL and 4 µM; in assay [6], 2 µg/mL and 4 µM; in assay [7], 2 µg/mL and 4 µM. The “bactericidal or bacteriostatic activity (killing rate = MBC/MIC)” value in assay [4] was “bactericidal effect”. The IC50 in [8] was > 10 µM.
